Measured values reported in ChEMBL document CHEMBL1821627, “Medicinal chemistry as a conduit for the modulation of quorum sensing” (J Med Chem, 2010).
Each block holds one compound with its values, some of them ahead of it. Where a SMILES comes first, the peptide text is derived from it. Bridges are numbered along the chain shown (N, C = ends).

Key:
[1] = Inhibition of Staphylococcus aureus Quorum sensing system AgrC-II activation after 60 to 90 minutes by beta-lactamase reporter assay; conditions: read-out: IC50
[2] = Inhibition of Staphylococcus aureus Quorum sensing system AgrC-I activation after 60 to 90 minutes by beta-lactamase reporter assay; conditions: read-out: IC50
[3] = Inhibition of Staphylococcus aureus Quorum sensing system AgrC-III activation after 60 to 90 minutes by […]
[4] = Inhibition of Staphylococcus aureus Quorum sensing system AgrC-IV activation after 60 to 90 minutes by beta-lactamase reporter assay
[5] = target: T1, Transcriptional activator protein LuxR (Aliivibrio fischeri, UniProt P12746); assay: Antagonist activity at Vibrio fischeri luxR receptor in presence of 5 uM 3-oxo-C6-HSL; assay type: functional
T1 sequence (P12746 whole entry): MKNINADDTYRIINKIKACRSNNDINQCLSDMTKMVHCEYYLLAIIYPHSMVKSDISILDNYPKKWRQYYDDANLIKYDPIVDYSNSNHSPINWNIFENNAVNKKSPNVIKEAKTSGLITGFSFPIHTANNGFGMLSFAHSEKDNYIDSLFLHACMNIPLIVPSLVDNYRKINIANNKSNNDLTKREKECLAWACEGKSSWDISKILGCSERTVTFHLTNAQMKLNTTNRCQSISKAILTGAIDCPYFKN

[6] = target: T2, Transcriptional activator protein TraR (Agrobacterium tumefaciens, UniProt P33905); assay: Antagonist activity at Agrobacterium tumefaciens TraR receptor in presence of 100 nM 3-oxo-C8-HSL; assay type: functional
T2 sequence (P33905 whole entry): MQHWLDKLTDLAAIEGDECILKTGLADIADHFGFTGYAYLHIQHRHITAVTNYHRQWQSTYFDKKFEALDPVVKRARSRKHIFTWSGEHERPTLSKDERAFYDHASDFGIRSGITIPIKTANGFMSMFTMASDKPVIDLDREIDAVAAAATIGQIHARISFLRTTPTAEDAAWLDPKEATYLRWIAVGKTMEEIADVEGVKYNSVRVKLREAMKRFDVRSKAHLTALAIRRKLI

[7] = target: T3, Transcriptional activator protein LasR (Pseudomonas aeruginosa (strain ATCC 15692 / PAO1 / 1C / PRS 101 / LMG12228), UniProt P25084); assay: Antagonist activity at Pseudomonas aeruginosa LasR receptor expressed in Escherichia coli in presence of 7.5 nM natural auto-inducer 3-oxo-C12-HSL; assay type: functional
T3 sequence (P25084 whole entry): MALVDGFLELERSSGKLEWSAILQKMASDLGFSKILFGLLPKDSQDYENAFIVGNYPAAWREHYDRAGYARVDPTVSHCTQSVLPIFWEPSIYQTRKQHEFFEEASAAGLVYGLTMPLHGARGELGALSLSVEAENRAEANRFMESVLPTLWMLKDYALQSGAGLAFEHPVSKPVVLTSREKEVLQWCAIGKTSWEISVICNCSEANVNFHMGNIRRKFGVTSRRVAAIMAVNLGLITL

[8] = Inhibition of autoinducer-stimulated quorum sensing regulated bioluminescence in Vibrio fischeri by luminescence assay; set-up: species or system Aliivibrio fischeri
PC-3 = assay: Growth inhibition of human PC3 cells; assay type: functional, cell-based
[9] = target: T1, Transcriptional activator protein LuxR; assay: Agonist activity at Vibrio fischeri luxR receptor in absence of natural autoinducer; assay type: functional
[10] = target: T3, Transcriptional activator protein LasR; assay: Agonist activity at Pseudomonas aeruginosa LasR receptor expressed in Escherichia coli in absence of natural autoinducer; assay type: functional
[11] = target: T3, Transcriptional activator protein LasR; assay: Agonist activity at Pseudomonas aeruginosa LasR cognate receptor expressed in Escherichia coli harboring pKDT17 assessed as activation of lasB expression by LacZ reporter gene assay; assay type: functional

SMILES: CCCCCCCCCC(=O)N[C@H]1CCOC1=O
- IC50 [5]: 400 nM
- IC50 [6]: 1050 nM
- IC50 [7]: 250 nM
- IC50 [8]: 39.2 nM

SMILES: CCCCCCC(=O)N[C@H]1CCOC1=O
- IC50 [5]: 1360 nM
- IC50 [6]: 690 nM

SMILES: CCCCCCCCCCCC(=O)CC(=O)N[C@H]1CCOC1=O
- EC50 [10]: 10 nM
- EC50 [11]: 15 nM

Results, then the compound that gave them:

- IC50 [1]: 209 nM
- IC50 [2]: 272 nM
- IC50 [3]: 10 nM
- IC50 [4]: 188 nM
SMILES: CC(=O)N[C@H]1CSC(=O)[C@H](Cc2ccccc2)NC(=O)[C@H](CC(C)C)NC(=O)[C@H](CO)NC(=O)[C@H](CO)NC1=O (Ac-CSSLF; thioester 1-C)

- IC50 (PC-3): > 100000 nM
SMILES: O=C(CCCCCCCCCCCc1ccccc1)N[C@H]1CCOC1=O

- EC50 [9]: 350 nM
SMILES: O=C(Cc1cccc([N+](=O)[O-])c1)N[C@H]1CCOC1=O

- EC50 [10]: 540 nM
SMILES: O=C(CC(=O)N[C@H]1CCOC1=O)Cc1ccccc1
